Assay results from publication PMC11571207, “Stereorandomized Oncocins with Preserved Ribosome Binding and Antibacterial Activity” (Journal of Medicinal Chemistry, 2024).
Where two headings read alike, the source gives them in different places. No end group written: not given here.

Key:
A. baumannii ATCC19606 = assay: microbe, parasite or virus in culture; settings: for MIC A. baumannii ATCC19606: supplement CSV
Outline: (§1)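 Read-out was visible growth after MTT addition, the MIC being the lowest inhibitory peptide concentration. Bacteria grown to log phase in LB were exposed in MH medium to peptide from 64 μg/mL in twofold dilutions for 15-18h at 37°C.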

E. coli W3110 = assay: microbe, parasite or virus in culture; settings: for MIC E. coli W3110: supplement CSV
Outline: as §1

K. pneumoniae NCTC 418 = assay: microbe, parasite or virus in culture; settings: for MIC K. pneumoniae NCTC418: supplement CSV
Outline: as §1

P. aeruginosa PAO1 = assay: microbe, parasite or virus in culture; settings: for MIC P. aeruginosa PAO1: supplement CSV
Outline: as §1

S. aureus COL (MRSA) = assay: microbe, parasite or virus in culture; settings: for MIC S. aureus COL (MRSA): supplement CSV
Outline: as §1

E. cloacae = assay: microbe, parasite or virus in culture; settings: for MIC E. cloacae: supplement CSV
Outline: (§2)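 Minimal inhibitory concentrations come from broth microdilution in MH medium, with a top peptide concentration of 64 μg/mL halved serially.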

K. pneumoniae OXA-48 = assay: microbe, parasite or virus in culture; settings: for MIC K. pneumoniae OXA-48: supplement CSV
Outline: as §2

[1] = test system: P. aeruginosa PA14 2P4 (pmrB); assay: microbe, parasite or virus in culture; settings: for MIC P. aeruginosa PA14 2P4: supplement CSV
Outline: as §2

P. aeruginosa PA14 = assay: microbe, parasite or virus in culture; settings: for MIC P. aeruginosa PA14: supplement CSV
Outline: as §2

P. aeruginosa ZEM-1A = assay: microbe, parasite or virus in culture
Outline: as §2

P. aeruginosa ZEM9A = assay: microbe, parasite or virus in culture; settings: for MIC P. aeruginosa ZEM9A: supplement CSV
Outline: as §2

[2] = test system: P. aeruginosa PA14 4.13 (phoQ); settings: for MIC P. aeruginosa PA14 4.13: supplement CSV
[3] = test system: P. aeruginosa PA14 4.18 (pmrB); settings: for MIC P. aeruginosa PA14 4.18: supplement CSV
human red blood cells = assay: Hemolysis assay, minimum hemolytic concentration
[4] = polymyxin B resistant strain, 12.5% MHB pH 7.4, 16–20 h at 37 °C
[5] = polymyxin B resistant strain, full MHB pH 7.4, 16–20 h at 37 °C

How did the “MIC A. baumannii, 12.5% MHB” value (A. baumannii ATCC19606; A. baumannii ATCC19606, 12.5% Müller–Hinton medium, 16–20 h at 37 °C) turn out when “VDKPPYLPRPRPPRRIYNR [sr5Cterm-Onc] (VDKPPYLPRPRPPRRIYNR-NH2; also: residues 15-19 stereorandomized (1:1 L/D mixture))” was run?
Its value is 4 µg/mL.

And the “MIC A. baumannii, Full MHB” value (A. baumannii ATCC19606; A. baumannii ATCC19606, full Müller–Hinton medium, 16–20 h at 37 °C)?
Its value is 32 µg/mL.

What about the “MIC A. baumannii ATCC19606” value (A. baumannii ATCC19606; 12.5% MH pH 7.4) of the same sequence?
The value was 4 µg/mL.

And the “MIC A. baumannii ATCC19606” value (A. baumannii ATCC19606; full MH pH 7.4)?
The value was 32 µg/mL.

And the “MIC E. coli, 12.5% MHB” value (E. coli W3110; E. coli W3110, 12.5% Müller–Hinton medium, 16–20 h at 37 °C, broth microdilution)?
Its value is 2 µg/mL.

What about the “MIC E. coli, Full MHB” value (E. coli W3110; E. coli W3110, full Müller–Hinton medium, 16–20 h at 37 °C, broth microdilution) of the same sequence?
Its value is 4 µg/mL.

And the “MIC E. coli W3110” value (E. coli W3110; 12.5% MH pH 7.4)?
Its value is 2 µg/mL.

What about the “MIC E. coli W3110” value (E. coli W3110; full MH pH 7.4) of the same sequence?
Its value is 4 µg/mL.

And the “MIC K. pneumoniae, 12.5% MHB” value (K. pneumoniae NCTC 418; K. pneumoniae NCTC 418, 12.5% Müller–Hinton medium, 16–20 h at 37 °C)?
The value was 2 / 2 μg/mL.

What about the “MIC K. pneumoniae, Full MHB” value (K. pneumoniae NCTC 418; K. pneumoniae NCTC 418, full Müller–Hinton medium, 16–20 h at 37 °C) of the same sequence?
The value was 2 / 2 μg/mL.

And the “MIC K. pneumoniae NCTC418” value (K. pneumoniae NCTC 418; 12.5% MH pH 7.4)?
Its value is 2 µg/mL.

And the “MIC K. pneumoniae NCTC418” value (K. pneumoniae NCTC 418; full MH pH 7.4)?
The value was 2 µg/mL.

And the “MIC P. aeruginosa, 12.5% MHB” value (P. aeruginosa PAO1; P. aeruginosa PAO1, 12.5% Müller–Hinton medium, 16–20 h at 37 °C)?
Its value is 8 µg/mL.

And the “MIC P. aeruginosa, Full MHB” value (P. aeruginosa PAO1; P. aeruginosa PAO1, full Müller–Hinton medium, 16–20 h at 37 °C)?
The value was 64 µg/mL.

What about the “MIC P. aeruginosa PAO1” value (P. aeruginosa PAO1; 12.5% MH pH 7.4) of the same sequence?
The value was 8 µg/mL.

What about the “MIC P. aeruginosa PAO1” value (P. aeruginosa PAO1; full MH pH 7.4) of the same sequence?
The value was 64 µg/mL.

What about the “MIC S. aureus, 12.5% MHB” value (S. aureus COL (MRSA); S. aureus COL (MRSA), 12.5% Müller–Hinton medium, 16–20 h at 37 °C) of the same sequence?
Its value is > 16 µg/mL.

And the “MIC S. aureus, Full MHB” value (S. aureus COL (MRSA); S. aureus COL (MRSA), full Müller–Hinton medium, 16–20 h at 37 °C)?
The value was > 64 µg/mL.

What about the “MIC S. aureus COL (MRSA)” value (S. aureus COL (MRSA); 12.5% MH pH 7.4) of the same sequence?
The value was >16 µg/mL.

And the “MIC S. aureus COL (MRSA)” value (S. aureus COL (MRSA); full MH pH 7.4)?
Its value is >64 µg/mL.

What about the “MIC E. cloacae, 12.5% MHB” value (E. cloacae; 12.5% MHB pH 7.4, 16–20 h at 37 °C) of the same sequence?
The value was 1 µg/mL.

What about the “MIC E. cloacae, full MHB” value (E. cloacae; full MHB pH 7.4, 16–20 h at 37 °C) of the same sequence?
Its value is 32 µg/mL.

What about the “MIC E. cloacae” value (E. cloacae; 12.5% MH pH 7.4) of the same sequence?
Its value is 1 µg/mL.

And the “MIC E. cloacae” value (E. cloacae; full MH pH 7.4)?
The value was 32 µg/mL.

What about the “MIC K. pneumoniae OXA-48, 12.5% MHB” value (K. pneumoniae OXA-48; carbapenem-resistant, 12.5% MHB pH 7.4, 16–20 h at 37 °C) of the same sequence?
The value was 4 µg/mL.

What about the “MIC K. pneumoniae OXA-48, full MHB” value (K. pneumoniae OXA-48; carbapenem-resistant, full MHB pH 7.4, 16–20 h at 37 °C) of the same sequence?
The value was 32 µg/mL.

What about the “MIC K. pneumoniae OXA-48” value (K. pneumoniae OXA-48; 12.5% MH pH 7.4) of the same sequence?
Its value is 4 µg/mL.

And the “MIC K. pneumoniae OXA-48” value (K. pneumoniae OXA-48; full MH pH 7.4)?
Its value is 32 µg/mL.

What about the “MIC P. aeruginosa PA14 2P4 (pmrB), 12.5% MHB” value [1, 4] of the same sequence?
The value was 2 µg/mL.

What about the “MIC P. aeruginosa PA14 2P4 (pmrB), full MHB” value [1, 5] of the same sequence?
The value was > 64 µg/mL.

What about the “MIC P. aeruginosa PA14 2P4” value ([1]; 12.5% MH pH 7.4) of the same sequence?
Its value is 2 µg/mL.

What about the “MIC P. aeruginosa PA14 2P4” value ([1]; full MH pH 7.4) of the same sequence?
The value was >64 µg/mL.

And the “MIC P. aeruginosa PA14, 12.5% MHB” value (P. aeruginosa PA14; 12.5% MHB pH 7.4, 16–20 h at 37 °C, two different duplicate MIC determinations)?
Its value is 8 µg/mL.

What about the “MIC P. aeruginosa PA14, full MHB” value (P. aeruginosa PA14; full MHB pH 7.4, 16–20 h at 37 °C, two different duplicate MIC determinations) of the same sequence?
Its value is > 64 µg/mL.

And the “MIC P. aeruginosa PA14” value (P. aeruginosa PA14; 12.5% MH pH 7.4)?
The value was 8 µg/mL.

And the “MIC P. aeruginosa PA14” value (P. aeruginosa PA14; full MH pH 7.4)?
Its value is >64 µg/mL.

And the “MIC P. aeruginosa ZEM-1A, 12.5% MHB” value (P. aeruginosa ZEM-1A; clinical isolate, 12.5% MHB pH 7.4, 16–20 h at 37 °C, cells marked c: single measurement (in duplicates))?
Its value is 4 to 8 µg/mL.

What about the “MIC P. aeruginosa ZEM-1A, full MHB” value (P. aeruginosa ZEM-1A; clinical isolate, full MHB pH 7.4, 16–20 h at 37 °C, cells marked c: single measurement (in duplicates)) of the same sequence?
Its value is 64 µg/mL.

And the “MIC P. aeruginosa ZEM-1A” value (P. aeruginosa ZEM-1A; supplement CSV, 12.5% MH pH 7.4)?
Its value is 4 to 8 µg/mL.

What about the “MIC P. aeruginosa ZEM9A, 12.5% MHB” value (P. aeruginosa ZEM9A; clinical isolate, 12.5% MHB pH 7.4, 16–20 h at 37 °C) of the same sequence?
The value was 8 µg/mL.

What about the “MIC P. aeruginosa ZEM9A, full MHB” value (P. aeruginosa ZEM9A; clinical isolate, full MHB pH 7.4, 16–20 h at 37 °C) of the same sequence?
The value was > 64 µg/mL.

And the “MIC P. aeruginosa ZEM9A” value (P. aeruginosa ZEM9A; 12.5% MH pH 7.4)?
The value was 8 µg/mL.

And the “MIC P. aeruginosa ZEM9A” value (P. aeruginosa ZEM9A; full MH pH 7.4)?
The value was >64 µg/mL.

What about the “MIC P. aeruginosa PA14 4.13 (phoQ), 12.5% MHB” value [2, 4] of the same sequence?
The value was 8 µg/mL.

What about the “MIC P. aeruginosa PA14 4.13 (phoQ), full MHB” value [2, 5] of the same sequence?
The value was 64 µg/mL.

And the “MIC P. aeruginosa PA14 4.13” value ([2]; 12.5% MH pH 7.4)?
The value was 8 µg/mL.

What about the “MIC P. aeruginosa PA14 4.13” value ([2]; full MH pH 7.4) of the same sequence?
The value was 64 µg/mL.

What about the “MIC P. aeruginosa PA14 4.18 (pmrB), 12.5% MHB” value [3, 4] of the same sequence?
Its value is 8 µg/mL.

And the “MIC P. aeruginosa PA14 4.18 (pmrB), full MHB” value [3, 5]?
The value was 64 µg/mL.

What about the “MIC P. aeruginosa PA14 4.18” value ([3]; 12.5% MH pH 7.4) of the same sequence?
The value was 8 µg/mL.

And the “MIC P. aeruginosa PA14 4.18” value ([3]; full MH pH 7.4)?
The value was 64 µg/mL.

And the “Haemolysis on hRBC, MHC” value (human red blood cells; 2.5% human red blood cells (final) in 10 mM phosphate, 150 mM NaCl, pH 7.4, 25 °C, 4 h, visual inspection)?
The value was >1000 µg/mL.

And the “MHC human red blood cells” value (human red blood cells; supplement CSV)?
Its value is >1000 µg/mL.
